Experimental data reported in patent US8916524B2, “Composition for improving brain function and method for improving brain function” (Calpis Co., Ltd., priority 2010, dated 2014).

Test system: scopolamine-induced amnesia
Experiment: Y-shaped maze test of spontaneous alternation behavior, prophylactic activity against scopolamine-induced amnesia
Format: in vivo, mice (ddY strain)
Conditions: male ddY mice; 5000 nmol/kg weight once orally 60 minutes before Y-shaped maze test; scopolamine 1 mg/kg weight subcutaneously 30 minutes before test
Description: Male mice (n=15) of the ddY strain (approximately 7-week old) were used, and they took food and water ad lib. Test substances used were 500 nmol/kg weight (230 ug/kg weight) and 5000 nmol/kg weight (2300 ug/kg weight) of Val-Pro-Pro-Phe (SEQ ID NO: 2). The test substances were administered to the mice once orally 60 minutes before the execution of a Y-shaped maze test for evaluation of spontaneous alternation behavior. Further, 30 minutes before the execution of the Y-shaped maze test, 1 mg/kg weight of scopolamine was subcutaneously administered on the backs of the mice in order to induce brain dysfunction (dysmnesia and/or cognitive impairment) in the mice. In the Y-shaped maze test, a Y-shaped maze was used as an experimental device, in which the length of each arm was 40 cm, the height of the wall was 12 cm, the width of the floor was 3 cm, and the width of the upper part was 10 cm, and three arms were connected to each other at an angle of 120 degrees. […] The sequence of the arms each of the mice entered was recorded. The number of entries by each of the mice for each of the arms during the measurement time was counted to be the total number of entries. […] The percentage of spontaneous alternation behavior was calculated by dividing the number of spontaneous alternation behavior by a number obtained by subtracting 2 from the total number of entries, and multiplying a resultant number by 100. […] The measured values were expressed in the form of mean±standard error for each group. A significant difference between the control group and the scopolamine control group was calculated using Student's t-test. Further, a significant difference between the scopolamine control group and the VPPF-administered group was calculated using Dunnett's multiple comparison test after one-way analysis of variance.
Male mice (n=15) of the ddY strain (approximately 7-week old) were used, and they took food and water ad lib. […] The arms each of the mice entered were sequentially recorded. […]

Substance | prophylactic activity against amnesia (percentage of spontaneous alternation behavior)
Asn-Ile-Pro-Pro-Leu (NIPPL; Synthetic functional peptide) | had a prophylactic activity against amnesia
Ile-Pro-Pro-Leu (IPPL; Synthetic functional peptide) | had a prophylactic activity against amnesia
Val-Pro-Pro-Phe (VPPF; Synthetic functional peptide) | had a prophylactic activity against amnesia
